Assay results reported in the supplement of paper PMC7661543.
± gives the standard deviation of the averaged measurements.

Assays:
Assay in all cases: relative cell number vs DMSO control (72 h) (% of DMSO); higher = less growth inhibition (more cells)
Details in all cases: sgRNA knockout: sgNT
[1] = system: HCC-38
Method: (§1)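 QMAP-Seq: a pool of 5 breast cancer cell lines (ZR-75-1, SKBR3, HCC-38, MDA-MB-231, BT-20), each carrying 12 doxycycline-inducible Cas9 sgRNA perturbations (11 knockouts plus non-targeting sgNT), was treated with compounds for 72 h at four 10-fold doses (10 nM-10 uM or 1 nM-1 uM range). Barcodes were amplified and sequenced, and cell number was interpolated from 293T spike-in standard curves. The result is expressed as % of the median of DMSO wells. Two biological replicates.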

[2] = system: BT-20
Method: as §1

[3] = system: MDA-MB-231
Method: as §1

[4] = system: SKBR3
Method: as §1

[5] = system: ZR-75-1
Method: as §1

| SMILES | relative cell number ([1]; 10 nM) | relative cell number ([1]; 100 nM) | relative cell number ([1]; 1000 nM) | relative cell number ([1]; 10000 nM) | relative cell number ([2]; 10 nM) | relative cell number ([2]; 100 nM) | relative cell number ([2]; 1000 nM) | relative cell number ([2]; 10000 nM) | relative cell number ([3]; 10 nM) | relative cell number ([3]; 100 nM) | relative cell number ([3]; 1000 nM) | relative cell number ([3]; 10000 nM) | relative cell number ([4]; 10 nM) | relative cell number ([4]; 100 nM) | relative cell number ([4]; 1000 nM) | relative cell number ([4]; 10000 nM) | relative cell number ([5]; 10 nM) | relative cell number ([5]; 100 nM) | relative cell number ([5]; 1000 nM) | relative cell number ([5]; 10000 nM) | relative cell number ([1]; 1 nM) | relative cell number ([2]; 1 nM) | relative cell number ([3]; 1 nM) | relative cell number ([4]; 1 nM) | relative cell number ([5]; 1 nM) |
| --- | --- | --- | --- | --- | --- | --- | --- | --- | --- | --- | --- | --- | --- | --- | --- | --- | --- | --- | --- | --- | --- | --- | --- | --- | --- |
| COc1cc(OC)c(/C=C/S(=O)(=O)Cc2ccc(OC)c(NCC(=O)O)c2)c(OC)c1 [Rigosertib] | 96.39 ± 0.69 | 44.2 ± 2.3 | 26.9 ± 2.6 | 24.8 ± 2.4 | 96.5 ± 1.7 | 70.2 ± 4 | 29.8 ± 11 | 29.5 ± 3.1 | 97.2 ± 1.3 | 94.6 ± 9.7 | 22.9 ± 3.4 | 21.6 ± 4.6 | 88.9 ± 21 | 5.08 ± 2.9 | 11 ± 1 | 11.1 ± 1.8 | 115 ± 13 | 18.8 ± 0.89 | 16.6 ± 2.9 | 16.3 ± 4.1 | – | – | – | – | – |
| CCc1c2c(nc3ccc(O)cc13)-c1cc3c(c(=O)n1C2)COC(=O)[C@]3(O)CC [SN38] | 35.7 ± 5.1 | 19.6 ± 4.8 | 14.5 ± 6 | – | 77.6 ± 9.2 | 45.3 ± 2.9 | 31.9 ± 5.3 | – | 38 ± 19 | 21.8 ± 3.3 | 19.5 ± 2 | – | 35 ± 16 | 23.2 ± 7.1 | 25 ± 0.91 | – | 39.7 ± 5.6 | 36.2 ± 4.4 | 25.4 ± 4.1 | – | 97.2 ± 7.5 | 90.7 ± 2 | 111 ± 8.8 | 67.7 ± 30 | 57.1 ± 2.3 |
| CC(C)(C)c1cnc(CSc2cnc(NC(=O)C3CCNCC3)s2)o1 [SNS032] | 100 ± 19 | 81.3 ± 2.6 | 17.3 ± 1.6 | 27.8 ± 0.81 | 116 ± 11 | 79.3 ± 15 | 19.7 ± 0.32 | 34.4 ± 1.1 | 106 ± 3.3 | 75.8 ± 13 | 10 ± 2.3 | 12 ± 1.4 | 72.7 ± 6 | 89.5 ± 12 | 7.96 ± 5 | 14.9 ± 1.1 | 99.8 ± 5 | 85.6 ± 9.4 | 9.44 ± 2.4 | 28.7 ± 4 | – | – | – | – | – |
| CC(=O)Nc1nc(C)c(S(=O)(=O)Nc2ccc(C(O)(C(F)(F)F)C(F)(F)F)cc2)s1 [SR1001] | 91.5 ± 2.2 | 105 ± 5.6 | 111.7 ± 0.68 | 109 ± 16 | 111 ± 12 | 92.4 ± 17 | 97.8 ± 18 | 116 ± 32 | 117 ± 5.5 | 123 ± 15 | 106 ± 12 | 118 ± 29 | 104 ± 4.2 | 87.5 ± 13 | 120 ± 17 | 121 ± 3.7 | 108 ± 41 | 80.6 ± 15 | 82.9 ± 26 | 113 ± 64 | – | – | – | – | – |
| CC(C)(C)c1ccc(S(=O)(=O)NCc2ccc(C(=O)Nc3cccnc3)cc2)cc1 [STF31] | 90.7 ± 9.9 | 82.5 ± 12 | 93.2 ± 7.9 | 76.6 ± 10 | 101 ± 4.2 | 96.7 ± 4.5 | 85.6 ± 20 | 72.8 ± 18 | 110 ± 16 | 93.4 ± 15 | 61.7 ± 12 | 27.3 ± 3.5 | 97.4 ± 8.6 | 83.52 ± 0.49 | 74.8 ± 10 | 44.1 ± 5.7 | 112 ± 27 | 92.7 ± 8 | 50.2 ± 2 | 63.1 ± 33 | – | – | – | – | – |
| CN1CCN(CCOc2cc(OC3CCOCC3)c3c(Nc4c(Cl)ccc5c4OCO5)ncnc3c2)CC1 [Saracatinib] | 80.8 ± 18 | 87 ± 10 | 78.8 ± 13 | 70.5 ± 12 | 90.5 ± 32 | 85.8 ± 15 | 73.7 ± 11 | 48.3 ± 18 | 84.1 ± 37 | 70.3 ± 5.9 | 64.1 ± 5.6 | 33.9 ± 17 | 85.4 ± 45 | 95.9 ± 16 | 62.9 ± 18 | 32.6 ± 8 | 77.5 ± 1.3 | 97.6 ± 53 | 92.6 ± 28 | 48.2 ± 22 | – | – | – | – | – |
| Cn1cnc2c(F)c(Nc3ccc(Br)cc3Cl)c(C(=O)NOCCO)cc21 [Selumetinib] | 96.6 ± 6.1 | 85.3 ± 4.4 | 84.4 ± 8.8 | 92.3 ± 3.6 | 80.6 ± 8.9 | 67 ± 3.8 | 99.2 ± 31 | 80.9 ± 20 | 88.9 ± 25 | 74.2 ± 37 | 96.3 ± 23 | 57.1 ± 36 | 97.8 ± 51 | 90.1 ± 60 | 103 ± 8.6 | 73.3 ± 5.1 | 71 ± 10 | 67 ± 25 | 67.5 ± 21 | 59.2 ± 5.8 | – | – | – | – | – |
